{
  "source": "paper PMC4978154",
  "about": "“Phase I metabolites of mephedrone display biological activity as substrates at monoamine transporters” (British Journal of Pharmacology, 2016)",
  "molecular_target": "T1, hSERT (Homo sapiens, UniProt P31645)",
  "T1 construct": "yellow fluorescent protein (YFP); expressed in transfected cells",
  "T1 sequence (P31645 whole entry, the tested form may be a part, canonical isoform)": "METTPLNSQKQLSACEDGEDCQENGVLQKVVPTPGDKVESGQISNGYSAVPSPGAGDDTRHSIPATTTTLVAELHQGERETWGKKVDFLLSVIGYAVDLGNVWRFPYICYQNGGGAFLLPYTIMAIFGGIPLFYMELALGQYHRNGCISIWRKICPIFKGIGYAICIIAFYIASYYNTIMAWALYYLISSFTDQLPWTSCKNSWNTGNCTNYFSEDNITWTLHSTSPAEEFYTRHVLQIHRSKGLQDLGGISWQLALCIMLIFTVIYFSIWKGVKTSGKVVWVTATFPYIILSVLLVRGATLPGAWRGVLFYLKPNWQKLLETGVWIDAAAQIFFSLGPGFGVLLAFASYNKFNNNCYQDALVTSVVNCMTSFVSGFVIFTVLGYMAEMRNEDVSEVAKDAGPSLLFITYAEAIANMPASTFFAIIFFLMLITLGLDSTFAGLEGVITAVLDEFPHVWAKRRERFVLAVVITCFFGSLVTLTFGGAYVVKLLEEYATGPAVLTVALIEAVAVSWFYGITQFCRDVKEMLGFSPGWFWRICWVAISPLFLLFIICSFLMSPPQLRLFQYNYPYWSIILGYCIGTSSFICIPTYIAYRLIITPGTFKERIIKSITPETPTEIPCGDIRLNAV",
  "assay": "Transporter release (superfusion) assay in HEK293 cells expressing hSERT",
  "type": "cell-based",
  "details": "test drug 10 μM, monensin 10 μM; post hoc Bonferroni",
  "procedure": "The generation of HEK293 cells stably expressing the human isoforms of DAT (hDAT) and NET (hNET) was carried out as described previously (Scholze et al., 2002). For SERT, the human isoform (hSERT) was cloned in frame with yellow fluorescent protein (Schmid et al., 2001). The generation of a stable cell line was performed as described by Hilber and colleagues (Hilber et al., 2005). HEK293 cells were maintained in humidified atmosphere (5% CO2, 37°C) in DMEM, supplemented with 10% heat‐inactivated FBS and penicillin (100 u 100 mL^−1) and streptomycin (100 μg 100 mL^−1). Selection pressure was maintained by adding geneticin (50 μg·mL^−1) to the cell culture media.\nSuperfusion experiments were performed as described previously (Scholze et al., 2002). […] Finally, the cells were lysed in 1% SDS to determine the total radioactivity. Radioactivity per fraction was assessed by a liquid scintillation counter and expressed as fractional release, that is, the percentage of released ^3H in relation to total ^3H present at the beginning of the fraction (Sitte et al., 2000). For analysis, release was expressed as AUC.\nCalculations were performed using Microsoft Excel® 2010 (Microsoft Corporation, Redmond, WA, USA) and GRAPHPAD PRISM 5.0. […] IC50 values for uptake inhibition and EC50 values for release were determined by nonlinear regression fits. […]",
  "data": [
    {"smiles": "CNC(C)C(=O)c1ccc(C)cc1.Cl", "note": "(stereo not shown) [Mephedrone, 2‐Methylamino‐1‐(p‐tolyl)propan‐1‐one hydrochloride]", "values": [
      {"measurement": "enhancement by monensin of drug-evoked [3H]-5-HT release at hSERT (AUC)", "result": "significant"}
    ]}
  ]
}
